Columns and labels:
[1] = molecular target: T1, human TRPV1 (Homo sapiens, UniProt Q8NER1); assay: Acid activation assay, ratiometric calcium imaging; type: cell-based; settings: HEK293-F cells expressing human TRPV1, Example 56 at 3 μM; for block of TRPV1-mediated increase in intracellular calcium concentration in response to pH 5.5: acid pH 5.5; for block of TRPV1-mediated increase in intracellular calcium concentration in response to capsaicin: capsaicin 1 μM
T1 construct: expressed in transfected cells; host or cells: HEK293-F cells, transient transfection
Method: The differential effects of TRPV1 antagonists on capsaicin- or acid-induced responses were verified by ratiometric calcium imaging. Transiently transfected HEK293-F cells expressing human TRPV1 were incubated with 5 μM Fura-2AM for 30 minutes at 37° C. Intracellular calcium concentration was measured on an imaging system consisting of the X-Cite™ 120 Fluorescence Illumination System (EXFO) and a Digital Camera (C4742-95, Hamamatsu Photonics) connected to an Olympus 1×71 microscope. Through the control of Slide Book 4.2 software, fluorescence was measured during excitation at 340 and 380 nm; the ratio of the fluorescence at both excitation wavelengths (F340/F380) was monitored. D-PBS, pH 7.4 (Invitrogen, catalog no. 14287) was used as the extracellular solution. Acidic buffer was prepared by titrating D-PBS, pH 7.4 with 7 N HCl to pH 5.5. Agonists and antagonists were prepared in the pH 7.4 or 5.5 solutions. Rapid solution switch was achieved by using a ValveLink system.
Over the time 1250-second course, the cells were challenged sequentially with solutions containing Example 56 (3 μM), Example 56 (3 μM) plus capsaicin (1 μM), Example 56 (3 μM) plus acid (pH 5.5), or acid (pH 5.5) alone. The black bars above the traces designate addition and duration of solution applications. Spaces between horizontal bars represent periods in which cells were perfused with D-PBS, pH 7.4 alone. […]

[2] = Rat telemetry protocol, core body temperature; type: in vivo; settings: core body temperature of rats one hour post dosing, 100 μmol/kg p.o., relative to vehicle
Method: Male, Sprague Dawley rats, 225-250 grams were anesthetized with Sevoflurane (Abbott Laboratories). Rats were placed on a heating pad and covered with a sterile surgical drape. A ventral midline abdominal incision was made and sterile cotton tip applicators were used to gently move internal tissue and expose the abdominal aorta for implantation of the telemetry catheter (Data Sciences International; TL11M2-050-PXT). Blood flow was temporarily stopped to the lower extremities (5-7 min) with Diffenbach clamps to allow the insertion of the telemetry catheter into the abdominal aorta. Once inserted, a sterile cellulose patch was placed over the catheter/aorta and secured using a small amount of tissue adhesive (Vetbond, 3M). Once catheter placement was complete, the clamps were removed and blood flow was restored to the lower extremities. Thetransmitter was placed in the intraperitoneal cavity. The transmitter suture rib was sewn into the abdominal sutures to secure it in place. The skin was closed using sterile wound clips and the animal removed from Sevoflurane. Buprenex ([…] s.c.; Phoenix) was administered for post-operative analgesia. Animals were maintained on a heating pad until ambulatory, and then individually housed with food and water ad lib. Surgical staples were removed after 7-10 days post-implantation. Rats were allowed a 2-week post-surgical recovery period before treatment with test compound. Oral dosing (p.o.) was at time zero, with rats receiving a single dose of vehicle (10% EtOH, 20% Tween-80, 70% PEG-400) or a 100 μmol/kg dose of compound dissolved in vehicle. Temperature measurements were recorded every 15 minutes for the duration of the study (24 hours).
Representative compounds described herein have the novel property of having limited transient temperature effect on core body temperature of a mammal (e.g. rats). For example, compounds tested alter core body temperature of rats by less than about +0.5° C. at about 1 hour after administration of a single dose (100 μmol/kg) of the test compounds orally, for example, in the range from about −2.5° C. to less than about +0.5° C., from about −0.5° C. to less than about +0.5° C.; or from about −0.3° C. to about +0.3° C.
The term “core body temperature” as used herein, means the temperature measured in the intraperitoneal cavity.

[3] = molecular target: T2, human TRPV1 receptor (hTRPV1) (Homo sapiens, UniProt Q8NER1); assay: Capsaicin activation assay (Ca2+ influx, FLIPR); type: cell-based; settings: hTRPV1 in 1321N1 cells, 0.05 μM capsaicin
T2 construct: expressed in transfected cells
Method: Dulbecco's modified Eagle medium (D-MEM) (with 4.5 mg/mL glucose) and fetal bovine serum were obtained from Hyclone Laboratories, Inc. (Logan, Utah). Dulbecco's phosphate-buffered saline (D-PBS) (with 1 mg/mL glucose and 3.6 mg/l Na pyruvate, without phenol red), L-glutamine, hygromycin B, and Lipofectamine® were obtained from Life Technologies (Grand Island, N.Y.). G418 sulfate was obtained from Calbiochem-Novabiochem Corp. (San Diego, Calif.). Capsaicin (8-methyl-N-vanillyl-6-nonenamide) was obtained from Sigma-Aldrich, Co. (St. Louis, Mo.). Fluo-4 AM (N-[4-[6-[(acetyloxy)methoxy]-2,7-difluoro-3-oxo-3H-xanthen-9-yl]-2-[2-[2-[bis[2-[(acetyloxy)methoxy]-2-oxyethyl]amino]-5-methyl-phenoxy[ethoxy]phenyl]-N-[2-[(acetyloxy)methoxy]-2-oxyethyl]-glycine, (acetyloxy)methyl ester) was purchased from Molecular Probes (Eugene, Oreg.).
The cDNAs for the human TRPV1 receptor (hTRPV1) were isolated by reverse transcriptase-polymerase chain reaction (RT-PCR) from human small intestine poly A+ RNA supplied by Clontech (Palo Alto, Calif.) using primers designed surrounding the initiation and termination codons identical to the published sequences (Hayes et al. Pain 2000, 88, 205-215). The resulting cDNA PCR products were subcloned into pClneo mammalian expression vector (Promega) and fully sequenced using fluorescent dye-terminator reagents (Prism, Perkin-Elmer Applied Biosystems Division) and a Perkin-Elmer Applied Biosystems Model 373 DNA sequencer or Model 310 genetic analyzer. Expression plasmids encoding the hTRPV1 cDNA were transfected individually into 1321N1 human astrocytoma cells using Lipofectamine®. Forty-eight hours after transfection, the neomycin-resistant cells were selected with growth medium containing 800 μg/mL Geneticin (Gibco BRL). Surviving individual colonies were isolated and screened for TRPV1 receptor activity. Cells expressing recombinant homomeric TRPV1 receptors were maintained at 37° C. in D-MEM containing 4 mM L-glutamine, 300 μg/mL G418 (Cal-biochem) and 10% fetal bovine serum under a humidified 5% CO2 atmosphere.
The functional activity of compounds at the TRPV1 receptor was determined with a Ca^2+ influx assay and measurement of intracellular Ca^2+ levels ([Ca^2+]i). All compounds were tested over an 11-point half-log concentration range. Compound solutions were prepared in D-PBS (4× final concentration), and diluted serially across 96-well v-bottom tissue culture plates using a Biomek 2000 robotic automation workstation (Beckman-Coulter, Inc., Fullerton, Calif.). A 0.2 μM solution of the TRPV1 agonist capsaicin was also prepared in D-PBS. The fluorescent Ca^2+ chelating dye Fluo-4 AM was used as an indicator of the relative levels of [Ca^2+]i in a 96-well format using a Fluorescence Imaging Plate Reader (FLIPR)(Molecular Devices, Sunnyvale, Calif.). Cells were grown to confluency in 96-well black-walled tissue culture plates. Then, prior to the assay, the cells were loaded with 100 μL per well of Fluo-4 AM (2 μM, in D-PBS) for 1-2 hours at 23° C. Washing of the cells was performed to remove extracellular Fluo-4 AM (2×1 mL D-PBS per well), and afterward, the cells were placed in the reading chamber of the FLIPR instrument. 50 μL of the compound solutions were added to the cells at the 10 second time mark of the experimental run. Then, after a 3-minute time delay, 50 μL of the capsaicin solution was added at the, 190 second time mark (0.05 μM final concentration)(final volume=200 μL) to challenge the TRPV1 receptor. Time length of the experimental run was 240 seconds. Fluorescence readings were made at 1 to 5 second intervals over the course of the experimental run. The peak increase in relative fluorescence units (minus baseline) was calculated from the 190 second time mark to the end of the experimental run, and expressed as a percentage of the 0.05 μM capsaicin (control) response. […]

T2 sequence (Q8NER1 whole entry): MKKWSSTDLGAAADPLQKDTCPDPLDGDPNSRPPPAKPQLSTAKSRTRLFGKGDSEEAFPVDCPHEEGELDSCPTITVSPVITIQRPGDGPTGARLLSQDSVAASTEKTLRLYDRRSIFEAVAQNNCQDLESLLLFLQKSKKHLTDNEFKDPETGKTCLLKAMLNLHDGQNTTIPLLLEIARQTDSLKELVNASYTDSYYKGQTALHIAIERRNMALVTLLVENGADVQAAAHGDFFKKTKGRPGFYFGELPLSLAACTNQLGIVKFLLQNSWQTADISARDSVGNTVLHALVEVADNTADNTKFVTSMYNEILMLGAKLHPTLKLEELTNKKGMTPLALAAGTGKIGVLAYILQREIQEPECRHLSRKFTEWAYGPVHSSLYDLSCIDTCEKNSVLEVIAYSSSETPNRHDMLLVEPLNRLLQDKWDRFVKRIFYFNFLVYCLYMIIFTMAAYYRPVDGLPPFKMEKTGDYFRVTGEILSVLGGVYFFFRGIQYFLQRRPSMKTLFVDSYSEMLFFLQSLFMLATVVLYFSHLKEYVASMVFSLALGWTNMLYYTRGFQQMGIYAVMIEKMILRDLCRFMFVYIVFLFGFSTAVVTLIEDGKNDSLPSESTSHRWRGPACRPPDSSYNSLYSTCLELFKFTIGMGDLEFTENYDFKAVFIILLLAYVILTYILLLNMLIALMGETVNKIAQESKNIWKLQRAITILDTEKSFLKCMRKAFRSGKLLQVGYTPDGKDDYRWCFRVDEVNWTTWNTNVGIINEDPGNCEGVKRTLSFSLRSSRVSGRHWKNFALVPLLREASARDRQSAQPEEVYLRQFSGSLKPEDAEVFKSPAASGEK
T1 sequence (Q8NER1 whole entry): as above

block of TRPV1-mediated increase in intracellular calcium concentration in response to pH 5.5 [1]	block of TRPV1-mediated increase in intracellular calcium concentration in response to capsaicin [1]	IC50 [3]	Structure (SMILES)	Δ Temp (° C.) [2]
completely blocked	completely blocked	–	CC(=O)Nc1nc2c(Oc3cc(N4CCN(C(C)c5ccc(F)cc5)CC4)ncn3)cccc2s1 (centres unmarked) [AMG 628, reference compound]	–
did not completely block	completely blocked	50 nM	CCC1(CC)C[C@@H](NC(=O)Nc2cccc3c2cnn3C)c2cc(F)ccc2O1 [Example 26, N-[(4R)-2,2-diethyl-6-fluoro-3,4-dihydro-2H-chromen-4-yl]-N′-(1-methyl-1H-indazol-4-yl)urea]	0.1 °C
did not completely block	completely blocked	16 nM	CCC1(CC)C[C@@H](NC(=O)Nc2cccc3c2cnn3C)c2cccc(OC(F)(F)F)c2O1 [Example 55, N-[(4R)-2,2-diethyl-8-(trifluoromethoxy)-3,4-dihydro-2H-chromen-4-yl]-N′-(1-methyl-1H-indazol-4-yl)urea]	0.3 °C
did not completely block	completely blocked	31 nM	CCCC1(CCC)C[C@@H](NC(=O)Nc2cccc3c2cnn3C)c2cc(F)ccc2O1 [Example 61, N-[(4R)-6-fluoro-2,2-dipropyl-3,4-dihydro-2H-chromen-4-yl]-N′-(1-methyl-1H-indazol-4-yl)urea]	0.3 °C
